Our source for the melting point values is a melting point compilation (Tetko et al.; mined from patent text by program, amines drawn as free bases though some values may be those of a salt).

For `Cn1c(Cc2ccc(Cl)c(Oc3cc(C#N)cc(C#N)c3)c2F)nn(COC(=O)CCC(=O)O)c1=O`, the melting point – broadly, the temperature, or range, at which the solid turns liquid – fell in the range of 142 to 143 °C.

`CCCOc1cccc(-c2ccnc(Nc3cc(OC)c(OC)c(OC)c3)n2)c1` registered a melting point of 107 °C.

Regarding `CCOC(=O)C(C)Oc1ccc(N(C)c2nc(Cl)c3cc(Cl)ccc3n2)cc1` (centres undefined), the melting point is more than 250 °C.

For the molecule `CC(C)=CCCN1c2ccccc2CN1[N+](=O)[O-]`, the melting point was 51 to 52 °C.

As to `CCOC(=O)N(C)S(=O)(=O)c1cc2c(c(Cl)c1Cl)OC(C(=O)O)C2` (centres undefined), the melting point lay within 199 to 201 °C.

In the case of `Cc1nc2ccccc2c(=O)n1NC(=O)Nc1ccc(Cl)cc1`, the melting point was 228 to 230 °C.

As to `O=C(O)CCCCCSC1c2ccccc2COc2ccc(OCc3ccc4ccc(Cl)cc4n3)cc21` (centres undefined), the melting point lay in the range of 160 to 166 °C.

Turning to `CCOc1ccc(-c2nc(-c3cc(C(=O)OC)c4oc(C)cc4c3)cs2)cc1OCC`, the melting point was in the range of 144 to 145 °C.

The molecule `CCn1nc(-c2ccccc2)c(C(C)=O)c(Nc2cccc3nnc(C)cc23)c1=O` returned a melting point of 235 to 238 °C.

`CC1(C)OC(=O)N(c2cccc(C#CC#N)c2)c2ccccc21`: the melting point lay in the range of 212 to 213 °C.

Consider `Cc1nc(N2CCC(c3ccccc3)CC2)c([N+](=O)[O-])c(=O)[nH]1`, for which the melting point was in the range of 210 to 213 °C.

In turn, `O=C1CCSc2cc(F)ccc21` gave a melting point of 61 to 66 °C.

The molecule `CCOC(=O)c1cccc(Nc2ccncc2N)c1` came in with a melting point of 80 to 91 °C.

`CC(C)(C#N)c1ccc(Cl)nc1` returned a melting point of 63 to 65 °C.

As for `O=Cc1c(F)cc(F)cc1-c1ccc(F)cc1`, the melting point was in the range of 69 to 71 °C.

Take `CC(C)c1cccc(C(C)C)c1NC(=O)Nc1ccc(Oc2ccc3nc(COc4ccc(CC5SC(=O)NC5=O)cc4)n(C)c3c2)cc1` (centres undefined): the melting point fell in the range of 222 to 225 °C.

Regarding `CCCCCCCN(Cc1ccc(C(C)(C)C)cc1)C(Nc1ccc(-c2ccccc2)cc1)=C1C(=O)COC1=O`, the melting point was 190 to 192 °C.

For the molecule `CCCc1c(CSc2nnc(NC(=O)C(=O)OCC)s2)ccc(C(C)=O)c1O`, the melting point turned out to be 189 °C.

`COc1cccc(N2C(CO)=Cc3cc(S(N)(=O)=O)sc3S2(=O)=O)c1` came in with a melting point of 180 to 182 °C.

In turn, `CCOC(=O)C(=CN(C)C)C(=O)c1cc2cc(F)c(Cl)cc2nc1Cl` showed a melting point of 122 °C.

The molecule `Cc1ncc(CN2CCN(c3ccccc3C)CC2)c(N)n1` showed a melting point of 189 to 190 °C.

As for `O=C(CCCN1CCCC1=O)Nc1ncccc1C(=O)c1cccs1`, the melting point is 143 to 145 °C.

Molecule `CCCC(=O)Nc1c(C)c(C)c2c(c1C)C(c1ccc(C(C)C)cc1)CO2` (centres undefined) returned a melting point of 177 to 178 °C.

The molecule `c1ccc(-c2nc(-c3ccc4c(c3)OCO4)c3cc4c(cc3n2)OCO4)cc1` showed a melting point of 225 to 230 °C.

`COc1cc(C)ccc1CNC(=O)C(=O)NCCc1ccc(C)cn1` yielded a melting point of 116 to 117 °C.

As for `Cc1nnc(C=Cc2ccccc2OCC(O)CNC2CC2)s1` (centres undefined), the melting point was in the range of 144 to 145 °C.

As for `COc1ccc(C(=O)c2c(-c3ccccc3)sc3ccccc23)cc1`, the melting point was 107 to 109 °C.

`CCOC(=O)Cc1sc(SCc2ccc(C(=O)OC)s2)nc1C` came in with a melting point of 49 to 51 °C.

For `CCCCC1(N(C)C)CCC(c2[nH]c3ccccc3c2C)(c2[nH]c3ccccc3c2CCNS(=O)(=O)C2CCCC2)CC1` (centres undefined), the melting point was 111 to 115 °C.

Take `CCN(Cc1nc2cc(OC)c(OC)cc2c(-c2ccc(OC)c(OC)c2)c1C(C)=O)C(C)(C)C`: the melting point is 156 to 157 °C.

`CN1CCN(Cc2cnc(Nc3cc(-c4cccc(-n5ncc6cc(C(C)(C)C)cc(F)c6c5=O)c4CO)nn(C)c3=O)cn2)CC1` returned a melting point of 215 to 218 °C.

Molecule `COc1ccccc1C(=O)N1CCN(C(=O)CNC2CCN(Cc3ccccc3)CC2)C(c2ccc(Cl)c(Cl)c2)C1` (racemic) showed a melting point of 71 to 73 °C.

Consider `O=C(NCc1cccnc1)c1ccc2n1Cc1ccccc1N(C(=O)c1ccccc1)C2`, for which the melting point amounted to 197 °C.

On to `CCN(CC)CCOC(=O)c1cc2cc(Br)ccc2nn1`, for which the melting point lay within 90 to 93 °C.

For `O=C(C#Cc1ccc(C(F)(F)F)cc1Cl)Nc1ccc2nc(N3CCCCC3)ccc2c1`, the melting point lay in the range of 176 to 179 °C.

For `COC(C(=O)O)c1ccc(OCc2ccccn2)cc1` (centres undefined), the melting point lay within 169 to 170 °C.

The molecule `CC(C)=CC(C)(S)[C@@H](NC=O)C(=O)O` (some centres undefined) gave a melting point of 183 to 184 °C.

`Cn1cncc1C(c1ccc(Cl)cc1)c1ccc2c(c1)c(-c1nc(-c3ccccc3)cs1)cc(=O)n2C` (centres undefined) showed a melting point of 171 °C.

Molecule `Cc1ccc(S(=O)(=O)N2[C@@H](CCC(=N)NO)CC[C@H]2c2ccc(F)cc2)cc1` (racemic) yielded a melting point of 134 °C.
